In ChEMBL document CHEMBL5214978, “Identification of 1,4-Benzodiazepine-2,5-dione Derivatives as Potential Protein Synthesis Inhibitors with Highly Potent Anticancer Activity” (J Med Chem, 2022):
Calls of active or inactive are those of the source. The rule behind the calls is not given here.

Assays:
A549 = test: Anticancer activity against human A549 cells assessed as cell growth inhibition measured after 48 hrs by SRB assay; type: functional
HCT-116 = test: Anticancer activity against human HCT-116 cells assessed as cell growth inhibition measured after 48 hrs by SRB assay; type: functional
SF-295 = test: Anticancer activity against human SF-295 cells assessed as cell growth inhibition measured after 48 hrs by SRB assay; type: functional
LOX IMVI = test: Anticancer activity against human LOX IMVI cells assessed as cell growth inhibition measured after 48 hrs by SRB assay; type: functional
786-0 = test: Anticancer activity against human 786-0 cells assessed as cell growth inhibition measured after 48 hrs by SRB assay; type: functional
[1] = tested on: Panel NCI-60 (60 carcinoma cell lines); test: Anticancer activity against human Panel NCI-60 (60 carcinoma cell lines) line assessed as cell growth inhibition measured after 48 hrs by SRB assay; type: functional
[2] = Inhibition of tubulin polymerization […] assessed as microtubule assembly measured every 1 min for 60 mins by fluorimeter analysis
NCI-H460 [3] = test: Induction of cell cycle arrest in human NCI-H460 cells assessed as accumulation at S phase at 20 nM incubated for 48 hrs by PI staining based flow cytometric analysis; type: functional
NCI-H522 [4] = test: Induction of apoptosis in human NCI-H522 cells assessed as viable cells at 0.05 uM incubated for 48 hrs by Annexin V-FITC/PI staining based flow cytometric analysis (reference value: 82.4%); type: functional; details: read-out: Activity
NCI-H522 [5] = test: Induction of apoptosis in human NCI-H522 cells assessed as early apoptotic cells at 0.05 uM incubated for 48 hrs by Annexin V-FITC/PI staining based flow cytometric analysis (Rvb =7.01 %); type: functional
NCI-H522 [6] = test: Induction of apoptosis in human NCI-H522 cells assessed as late apoptotic cells at 0.05 uM incubated for 48 hrs by Annexin V-FITC/PI staining based flow cytometric analysis (Rvb =9.14 %); type: functional
NCI-H522 [7] = test: Induction of apoptosis in human NCI-H522 cells assessed as necrotic cells at 0.05 uM incubated for 48 hrs by Annexin V-FITC/PI staining based flow cytometric analysis (Rvb =0.64 %); type: functional
NCI-H522 [8] = test: Induction of apoptosis in human NCI-H522 cells assessed as viable cells at 0.5 uM incubated for 48 hrs by Annexin V-FITC/PI staining based flow cytometric analysis (reference value: 82.4%); type: functional; details: read-out: Activity
NCI-H522 [9] = test: Induction of apoptosis in human NCI-H522 cells assessed as early apoptotic cells at 0.5 uM incubated for 48 hrs by Annexin V-FITC/PI staining based flow cytometric analysis (Rvb =7.01 %); type: functional
NCI-H522 [10] = test: Induction of apoptosis in human NCI-H522 cells assessed as late apoptotic cells at 0.5 uM incubated for 48 hrs by Annexin V-FITC/PI staining based flow cytometric analysis (Rvb =9.14 %); type: functional
NCI-H522 [11] = test: Induction of apoptosis in human NCI-H522 cells assessed as necrotic cells at 0.5 uM incubated for 48 hrs by Annexin V-FITC/PI staining based flow cytometric analysis (Rvb =0.64 %); type: functional
NCI-H522 [12] = test: Induction of apoptosis in human NCI-H522 cells assessed as viable cells at 5 uM incubated for 48 hrs by Annexin V-FITC/PI staining based flow cytometric analysis (reference value: 82.4%); type: functional; details: read-out: Activity
NCI-H522 [13] = test: Induction of apoptosis in human NCI-H522 cells assessed as early apoptotic cells at 5 uM incubated for 48 hrs by Annexin V-FITC/PI staining based flow cytometric analysis (Rvb =7.01 %); type: functional
NCI-H522 [14] = test: Induction of apoptosis in human NCI-H522 cells assessed as late apoptotic cells at 5 uM incubated for 48 hrs by Annexin V-FITC/PI staining based flow cytometric analysis (Rvb =9.14 %); type: functional
NCI-H522 [15] = test: Induction of apoptosis in human NCI-H522 cells assessed as necrotic cells at 5 uM incubated for 48 hrs by Annexin V-FITC/PI staining based flow cytometric analysis (Rvb =0.64 %); type: functional
NCI-H522 [16] = test: Induction of apoptosis in human NCI-H522 cells assessed as apoptotic rate at 0.05 to 5 uM incubated for 48 hrs by AnnexinV-FITC/PI staining based flow cytometric analysis; type: functional; details: dose 0.05-5 µM
NCI-H460 [17] = test: Induction of apoptosis in human NCI-H460 cells assessed as effect on cleavage of PARP at 1 uM measured for 48 hrs by western blot analysis; type: functional, cell-based
NCI-H460 [18] = test: Induction of apoptosis in human NCI-H460 cells assessed as effect on caspase 3 level at 1 uM measured for 48 hrs by western blot analysis; type: functional, cell-based
NCI-H460 [19] = test: Induction of apoptosis in human NCI-H460 cells assessed as effect on caspase 7 level at 1 uM measured for 48 hrs by western blot analysis; type: functional, cell-based
NCI-H460 [20] = test: Induction of apoptosis in human NCI-H460 cells assessed as effect on caspase 9 level at 1 uM measured for 48 hrs by western blot analysis; type: functional, cell-based
NCI-H522 [21] = test: Induction of mitochondrial membrane potential depolarization in human NCI-H522 cells measured after 48 hrs by JC-1 staining based flow cytometry analysis; type: functional, cell-based; details: dose 0.05-5 µM, DDE = dose-dependent effect
NCI-H460 [22] = test: Downregulation of c-Myc protein expression level in human NCI-H460 cells at 20 nM incubated for 0.5 to 6 hrs by western blot analysis; type: functional, cell-based; details: time 0.5-6 hrs
NCI-H460 [23] = test: Inhibition of polyribosome in human NCI-H460 cells assessed as increase in 80S ribosome at 200 nM incubated for 1 hr in presence of cycloheximide; type: functional, cell-based
[24] = Cmax in BALB/c nude mouse at 1 mg/kg, iv by LC-MS/MS analysis; type: ADME, organism-based; set-up: dose 1 mg/kg, route iv; details: in vivo
[25] = Cmax in BALB/c nude mouse at 10 mg/kg, po by LC-MS/MS analysis; type: ADME, organism-based; set-up: dose 10 mg/kg, route po; details: in vivo
[26] = AUC (0 to t) in BALB/c nude mouse at 1 mg/kg, iv by LC-MS/MS analysis; type: ADME, organism-based; set-up: dose 1 mg/kg, route iv; details: in vivo
[27] = AUC (0 to t) in BALB/c nude mouse at 10 mg/kg, po by LC-MS/MS analysis; type: ADME, organism-based; set-up: dose 10 mg/kg, route po; details: in vivo
[28] = Half life in BALB/c nude mouse at 10 mg/kg, po by LC-MS/MS analysis; type: ADME, organism-based; details: in vivo
[29] = Oral bioavailability in BALB/c nude mouse at 10 mg/kg by LC-MS/MS analysis; type: ADME, organism-based; details: in vivo
NCI-H522 [30] = test: Antitumor activity against human NCI-H522 cells xenografted in iv dosed BALB/c nude mouse assessed as inhibition of tumor growth administered every 4 days for 21 days; type: functional, organism-based; details: dose 12.5-50 mg/kg, time 4.0 day, DDE = dose-dependent effect
NCI-H522 [31] = test: Antitumor activity against human NCI-H522 cells xenografted in BALB/c nude mouse assessed as reduction of tumor weight at 50 mg/kg, iv administered every 4 days for 21 days; type: functional; set-up: scale not given: the % may be the effect or the level left; details: time 4 day
NCI-H522 [32] = test: Antitumor activity against human NCI-H522 cells xenografted in BALB/c nude mouse assessed as reduction of tumor growth by measuring T/C ratio at 50 mg/kg, iv administered every 4 days for 21 days; type: functional; details: time 4 day
[33] = Toxicity in BALB/c nude mouse xenografted with human NCI-H522 cells assessed as change in body weight at 12.5 to 50 mg/kg, iv administered every 4 days for 21 days; type: organism-based; details: in vivo, 96 h, dose 12.5-50 mg/kg, time 4 day

Compound: CCN(CC)C(=O)C[C@H]1C(=O)Nc2cc(NC(=O)c3cc(OC)c(OC)c(OC)c3Br)c(Oc3cc(C)cc(C)c3)cc2C(=O)N1C
- GI50 (A549): < 5 nM
- GI50 (HCT-116): < 5 nM
- GI50 (SF-295): < 5 nM
- GI50 (LOX IMVI): < 5 nM
- GI50 (786-0): < 5 nM
- GI50 [1]: < 5 nM
- IC50 [2]: 10100 nM
- Activity (NCI-H460 [3]): Active
- viability at 0.05 µM (NCI-H522 [4]): 65.8%
- Activity (NCI-H522 [5]): 7.75%
- Activity (NCI-H522 [6]): 25.2%
- Activity (NCI-H522 [7]): 1.25%
- viability at 0.5 µM (NCI-H522 [8]): 28.4%
- Activity (NCI-H522 [9]): 14.5%
- Activity (NCI-H522 [10]): 52.4%
- Activity (NCI-H522 [11]): 4.6%
- viability at 5 µM (NCI-H522 [12]): 13.5%
- Activity (NCI-H522 [13]): 19.8%
- Activity (NCI-H522 [14]): 59%
- Activity (NCI-H522 [15]): 7.64%
- Activity (NCI-H522 [16]): 35%
- Activity (NCI-H460 [17]): Active
- Activity (NCI-H460 [18]): Active
- Activity (NCI-H460 [19]): Active
- Activity (NCI-H460 [20]): Active
- Activity (NCI-H522 [21]): Dde
- Activity (NCI-H460 [22]): Active
- Activity (NCI-H460 [23]): Active
- Cmax [24]: 1540 ng/mL
- Cmax [25]: 42.6 ng/mL
- AUC(0-t) [26]: 439 ng·h/mL
- AUC(0-t) [27]: 66.5 ng·h/mL
- half-life [28]: 1.4 h
- bioavailability [29]: 1.53%
- Activity (NCI-H522 [30]): Dde
- Activity (NCI-H522 [31]): 88.7%
- T/C (NCI-H522 [32]): 13.6%
- Activity [33]: < 10%
